# Source: patent US6649654B1, “Methods for identifying and using IKK inhibitors” (The Regents of the University of California, priority 1999, dated 2003)
# Entries after “also recorded” stand apart in the source; their conditions may differ.
# Assays:
# Type in all cases: cell-based
# [1] = system: IKK; assay: NIK-induced endogenous IKK activity in transfected COS cells; details: PGA1 added 10 min or 18 h after transfection
# Experimental: (§1) Cells used in the experiments described herein were cultured in either RPMI 1640 (Jurkat cells) or DMEM (HeLa and COS cells), supplemented with 10% FBS and antibiotics. Cells were stimulated with either 25 ng/ml TPA, 20 ng/ml recombinant TNFα, or 10 ng/ml interleukin 1β (Sigma). PGA1, 15dPGJ2, T×B2, LTB4, AA and other PGs (Cayman) dissolved in ethanol were used as well, as known in the art (See e.g., Rossi et al., 94:746-750 [1997]). Controls received equal amounts of ethanol. Transfections were performed using Lipofectamine Plus (GIBCO) for HeLa and COS cells and DEAE-dextran (Sigma) for Jurkat cells. Xpress-tagged NIK, Xpress-tagged MEKK1, HA-tagged IKKα, and HA-tagged IKKβ were also used (See e.g., Zandi et al., Science 281:1360-1363 [1998]; and Delhase et al., Science 284:309-313 [1999]). COX2 and cPLA2 expression vectors were obtained from Dr. L. Feng (See also, Hirose et al., J. Am. Soc. Nephrol., 9:408-416 [1998]). PGD synthase was cloned from HT29 colon carcinoma cell line cDNA by PCR and subcloned into a pCDNA3 vector. […]
# (§2) Cell lysates were incubated with anti-IKKα (Pharmingen), anti-HA (12CA5; Pharmingen), anti-JNK1 (333.8; Pharmingen), or anti-p38 (New England Biolabs) for 2 hours. […] Endogenous IKK, HA-tagged IKKα, endogenous JNK1, and p38 activities were determined with GST-1κBα(1-54), GST-c-Jun(1-79), and GST-ATF2 as substrates.
# [2] = molecular target: JNK (Homo sapiens, UniProt P45983); assay: JNK activation in TPA-stimulated Jurkat cells; parameters: endogenous in cells; host or cells: Jurkat; details: 24 μM PGA1, TPA
# JNK, sequence (P45983 whole entry): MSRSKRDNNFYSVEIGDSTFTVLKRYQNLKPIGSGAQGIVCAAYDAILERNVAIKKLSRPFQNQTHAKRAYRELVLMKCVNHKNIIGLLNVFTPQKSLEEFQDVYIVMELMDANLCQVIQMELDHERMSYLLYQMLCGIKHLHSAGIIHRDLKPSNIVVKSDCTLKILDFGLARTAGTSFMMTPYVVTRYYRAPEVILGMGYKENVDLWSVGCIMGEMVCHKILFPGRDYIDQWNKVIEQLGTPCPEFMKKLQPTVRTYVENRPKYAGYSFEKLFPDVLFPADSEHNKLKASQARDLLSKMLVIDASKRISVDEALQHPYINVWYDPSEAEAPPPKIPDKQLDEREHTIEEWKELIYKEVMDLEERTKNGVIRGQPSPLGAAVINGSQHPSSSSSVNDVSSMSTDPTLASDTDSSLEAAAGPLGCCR
# Experimental: as §1
# as §2, with “substrates. […]” for “substrates.”
# [3] = molecular target: T1, IKKβ (Homo sapiens, UniProt O14920); assay: HA-tagged IKKβ overexpressed in COS cells: kinase activity and expression
# T1 sequence (O14920 1-756): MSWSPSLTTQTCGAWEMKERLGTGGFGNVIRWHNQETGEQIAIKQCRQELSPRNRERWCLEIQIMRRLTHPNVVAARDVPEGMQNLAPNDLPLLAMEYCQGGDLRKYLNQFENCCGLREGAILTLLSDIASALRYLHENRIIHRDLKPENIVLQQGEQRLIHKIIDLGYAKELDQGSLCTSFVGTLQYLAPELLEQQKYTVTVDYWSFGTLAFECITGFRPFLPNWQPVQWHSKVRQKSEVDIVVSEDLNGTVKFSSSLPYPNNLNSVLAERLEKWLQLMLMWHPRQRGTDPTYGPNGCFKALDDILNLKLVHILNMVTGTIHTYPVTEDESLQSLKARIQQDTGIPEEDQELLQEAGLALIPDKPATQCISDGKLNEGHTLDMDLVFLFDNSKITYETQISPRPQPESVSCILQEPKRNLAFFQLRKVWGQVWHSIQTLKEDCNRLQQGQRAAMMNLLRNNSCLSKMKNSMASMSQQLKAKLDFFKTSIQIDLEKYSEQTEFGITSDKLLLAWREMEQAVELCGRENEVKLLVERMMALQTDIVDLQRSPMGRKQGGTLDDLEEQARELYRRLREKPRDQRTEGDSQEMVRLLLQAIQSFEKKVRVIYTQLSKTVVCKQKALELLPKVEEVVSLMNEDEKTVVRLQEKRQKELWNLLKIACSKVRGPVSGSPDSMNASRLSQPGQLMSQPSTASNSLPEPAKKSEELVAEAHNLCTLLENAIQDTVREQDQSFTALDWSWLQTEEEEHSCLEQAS
# Experimental: as §1, §2
# [4] = molecular target: p38 (Homo sapiens, UniProt Q16539); assay: p38 MAP kinase activation in TPA-stimulated Jurkat cells; parameters: endogenous in cells; host or cells: Jurkat; details: 24 μM PGA1, TPA
# p38, sequence (Q16539 whole entry): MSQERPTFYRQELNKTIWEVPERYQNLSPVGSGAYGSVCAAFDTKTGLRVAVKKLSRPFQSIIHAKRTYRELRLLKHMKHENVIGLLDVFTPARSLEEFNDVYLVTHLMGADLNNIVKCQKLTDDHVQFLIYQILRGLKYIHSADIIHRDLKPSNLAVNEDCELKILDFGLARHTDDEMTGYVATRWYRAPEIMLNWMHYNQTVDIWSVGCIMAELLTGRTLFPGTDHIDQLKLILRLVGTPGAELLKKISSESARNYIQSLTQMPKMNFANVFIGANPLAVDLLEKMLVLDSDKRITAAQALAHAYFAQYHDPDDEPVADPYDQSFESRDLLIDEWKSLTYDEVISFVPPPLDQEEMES
# Experimental: as §1
# as §2, with “substrates. […]” for “substrates.”
compound,measurement,setting,value
"CCCCC[C@H](O)/C=C/[C@H]1C=CC(=O)C1CCCCCCC(=O)O (some centres unmarked) [PGA1, prostaglandin A1]",effect on NIK-induced activation of endogenous IKK activity,[1],inhibited; also recorded: prevents
same,effect on activation of JNK,[2],did not inhibit
same,effect on IKKβ expression (immunoblotting),[3]; COS cells overexpressing HA-tagged IKKβ,did not affect
same,effect on kinase activity of overexpressed HA-tagged IKKβ,"[3]; COS cells, PGA1 15 or 30 μM, FIG. 2C",strongly inhibited; also recorded: inhibits
same,effect on activation of p38 MAP kinase,[4],did not inhibit
